Experimental data as given in patent US20240216401A1, “COMBINATION THERAPY BY USING AKR1C3-ACTIVATED COMPOUND WITH IMMUNE CHECKPOINT INHIBITOR” (OBI Pharma, Inc., priority 2021, published 2024).

Test system: HepG2 tumor
Experiment: Example 2: tumor volume, tumor weight and TGI in HepG2 tumor bearing humanized mice
Type: in vivo, Mus musculus
Conditions: Example 2, D30
Experimental: 1. Species: Mus musculus • Strain: Advanced immunodeficiency mouse. • (NOD.CgPrkdc^scid Il2rg) • Source: Trineo Biotechnology Co., LTD.
Each group contains six mice. The human hepatocellular carcinoma cell line HepG2 were subcutaneously inoculated to the advanced immune-deficiency mice. Total of 42 mice were included in this study.
2.2. […] The subcutaneous injection volume was […].
3.1. […] The injection was performed using insulin syringe with the dosage of 0.3 mg/kg or 1 mg/kg and the injection volume was 5 mL/kg. […] The reference item was administered for G1. The procedure followed the standards of sample administration. The starting day of test item administration was denoted as the first experimental day (DO).
3.2. […] The injection was performed using insulin syringe with the dosage of 20 mg/kg and injection volume of 10 mL/kg. […] The procedure followed the standards of sample administration.
The measurement was performed from the next day of the inoculation. The tumor volumes were measured and recorded twice a week (Mon., Thur.). Tumor volume was calculated by ellipsoid equation according to the records ((major axis×minor axis×minor axis)×(π/6)).
Tumor volumes were used to calculate tumor growth inhibition (TGI) rates according to the following formula: TGI (%)=[1−(Ti−T0)/(Ci−C0)]×100, where Ti and Ci indicate the mean tumor volume in the treatment groups and vehicle group at the end of the experiment (Day 30). Whereas, T0 and C0 indicate the mean tumor volumes in the treatment group and vehicle group at the beginning of the experiment (Day 0).
Mice were sacrificed by CO2 euthanasia at the end of the study duration, and the connective tissue around tumor was resected. The tumor samples were then weighed and cut equally into three sections if the tumor weight over 400 mg. The tumor tissue was prepared for the isolation of tumor-infiltrating lymphocytes (TILs). The rest of one section was fixed in 10% formaldehyde and embedded in paraffin; the other was stored at a temperature below −70° C.

Substance: anti-hPD-1: Anti-Human PD-1 antibody, Pembrolizumab, Merck & Co., Inc.
- mean tumor volume (mean±SEM, anti-hPD-1 20 mg/kg IP alone (G4)): 983.84±266.44 mm^3
- mean tumor volume compared with vehicle (in words) (vs vehicle (G1), OBI-3424 high-dose 1 mg/kg (G3), anti-hPD-1 20 mg/kg (G4), combinations G5-G7): No statistically significant difference
